Columns and labels:
[1] = target: T1, Sortase A (Staphylococcus aureus, UniProt Q9S446); assay: Inhibition of Staphylococcus aureus sortase A
T1 sequence (Q9S446 whole entry): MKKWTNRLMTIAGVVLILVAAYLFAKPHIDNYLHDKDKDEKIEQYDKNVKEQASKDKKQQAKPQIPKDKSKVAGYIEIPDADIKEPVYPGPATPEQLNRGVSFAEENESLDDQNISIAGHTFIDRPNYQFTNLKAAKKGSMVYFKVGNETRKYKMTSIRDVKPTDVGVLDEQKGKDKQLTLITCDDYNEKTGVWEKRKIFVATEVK

[2] = tested on: Salmonella enterica; assay: Antibacterial activity against Salmonella enterica ATCC 14028 assessed as reduction in microbial growth; assay type: functional
[3] = tested on: Enterococcus faecium; assay: Antibacterial activity against Enterococcus faecium ATCC 19434 assessed as reduction in microbial growth; assay type: functional
[4] = tested on: Enterococcus faecalis; assay: Antibacterial activity against Enterococcus faecalis ATCC 19433 assessed as reduction in microbial growth; assay type: functional
[5] = tested on: Proteus hauseri; assay: Antibacterial activity against Proteus hauseri NBRC 3851 assessed as reduction in microbial growth; assay type: functional
[6] = tested on: Staphylococcus aureus; assay: Antibacterial activity against Staphylococcus aureus ATCC 6538P assessed as reduction in microbial growth; assay type: functional
[7] = target: Isocitrate lyase (Candida albicans, UniProt Q9P8Q7); assay: Inhibition of Candida albicans ICL assessed as reduction in glyoxylate phenylhydrazone formation using M threo-DL(+)isocitrate as substrate incubated for 30 mins by spectrophotometric method
Isocitrate lyase, sequence (Q9P8Q7 whole entry): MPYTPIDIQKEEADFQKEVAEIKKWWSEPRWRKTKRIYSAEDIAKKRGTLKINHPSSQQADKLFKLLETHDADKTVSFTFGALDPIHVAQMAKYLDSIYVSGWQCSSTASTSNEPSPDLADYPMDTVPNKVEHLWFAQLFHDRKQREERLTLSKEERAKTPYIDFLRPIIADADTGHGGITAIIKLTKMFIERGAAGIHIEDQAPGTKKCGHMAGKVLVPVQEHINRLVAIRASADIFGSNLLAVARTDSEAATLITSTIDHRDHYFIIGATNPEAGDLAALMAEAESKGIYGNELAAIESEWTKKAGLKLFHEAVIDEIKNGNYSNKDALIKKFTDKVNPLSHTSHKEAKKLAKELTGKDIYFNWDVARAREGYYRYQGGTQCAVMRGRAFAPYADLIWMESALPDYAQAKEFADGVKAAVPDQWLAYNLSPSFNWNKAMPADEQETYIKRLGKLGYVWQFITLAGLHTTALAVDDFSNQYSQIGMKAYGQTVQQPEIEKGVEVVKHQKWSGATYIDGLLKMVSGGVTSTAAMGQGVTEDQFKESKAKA

[8] = tested on: Klebsiella pneumoniae; assay: Antibacterial activity against Klebsiella pneumoniae ATCC 10031 assessed as reduction in microbial growth; assay type: functional
[9] = tested on: A549; assay: Cytotoxicity against human A549 cells assessed as reduction in cell viability after 72 hrs by sulforhodamine B assay; assay type: functional, cell-based; conditions: A549, 72 h
[10] = tested on: K562; assay: Cytotoxicity against human K562 cells assessed as reduction in cell viability after 72 hrs by sulforhodamine B assay; assay type: functional, cell-based; conditions: K562, 72 h

SMILES | IC50 [1] | MIC [2] | MIC [3] | MIC [4] | MIC [5] | MIC [6] | IC50 [7] | MIC [8] | IC50 [9] | IC50 [10]
COc1c(Br)cc([C@H](O)C2=C(c3ccc(O)c(Br)c3)/C(=C/c3cc(Br)c(O)c(Br)c3)OC2=O)cc1Br | > 159 µM | 4 µg/mL | > 128 µg/mL | 8 µg/mL | 2 µg/mL | 2 µg/mL | > 159 µM | > 128 µg/mL |  | 
COc1c(Br)cc([C@H](O)C2=C(c3cc(Br)c(O)c(Br)c3)/C(=C/c3ccc(O)c(Br)c3)OC2=O)cc1Br | > 159 µM | 8 µg/mL | > 128 µg/mL | 32 µg/mL | 4 µg/mL | 8 µg/mL | > 159 µM | > 128 µg/mL |  | 
O=C(O)CC[N+](=O)[O-] |  |  |  |  |  |  | 17 µM |  |  | 
COC(=O)C1=C(c2cc(Br)c(O)c(Br)c2)[C@](OC)(c2cc(Br)c(O)c(Br)c2)O[C@@]1(C(=O)OC)c1cc(Br)c(O)c(Br)c1 | > 133 µM | > 128 µg/mL | > 128 µg/mL | > 128 µg/mL | > 128 µg/mL | 64 µg/mL | 104 µM | > 128 µg/mL | > 10 µM | > 10 µM
COC(=O)C1=C(c2cc(Br)c(O)c(Br)c2)C(=O)[C@](c2ccc(O)c(Br)c2)(c2cc(Br)c(O)c(Br)c2)C1=O | 70 µM | 64 µg/mL | > 128 µg/mL | > 128 µg/mL | 64 µg/mL | 16 µg/mL | 49 µM | > 128 µg/mL | > 10 µM | > 10 µM
COC(=O)C1=C(c2cc(Br)c(O)c(Br)c2)C(=O)C(c2cc(Br)c(O)c(Br)c2)(c2cc(Br)c(O)c(Br)c2)C1=O | 67 µM | 64 µg/mL | > 128 µg/mL | 64 µg/mL | > 128 µg/mL | 16 µg/mL | 22 µM | > 128 µg/mL | > 10 µM | > 10 µM
COc1ccc(/C=C2\OC(=O)C([C@@H](O)c3cc(Br)c(OC)c(Br)c3)=C2c2cc(Br)c(O)c(Br)c2)cc1Br | > 156 µM | 64 µg/mL | > 128 µg/mL | 64 µg/mL | 8 µg/mL | 32 µg/mL | 150 µM | > 128 µg/mL |  | 
COC(=O)C1=C(c2ccc(O)c(Br)c2)C(=O)[C@](c2ccc(O)c(Br)c2)(c2cc(Br)c(O)c(Br)c2)C1=O | 102 µM | 64 µg/mL | > 128 µg/mL | > 128 µg/mL | 8 µg/mL | 32 µg/mL | 47 µM | > 128 µg/mL | > 10 µM | > 10 µM
COc1ccc(C[C@@]2(O)OC(=O)C([C@@H](O)c3cc(Br)c(OC)c(Br)c3)=C2c2cc(Br)c(O)c(Br)c2)cc1Br | > 153 µM | 16 µg/mL | > 128 µg/mL | 64 µg/mL | 16 µg/mL | 16 µg/mL | 63 µM | > 128 µg/mL | > 10 µM | > 10 µM
COC(=O)C1=C(c2cc(Br)c(O)c(Br)c2)C(=O)[C@](OC)(c2ccc(O)c(Br)c2)O[C@]1(OC)c1cc(Br)c(O)c(Br)c1 | > 145 µM | > 128 µg/mL | > 128 µg/mL | > 128 µg/mL | > 128 µg/mL | 64 µg/mL | 127 µM | > 128 µg/mL | > 10 µM | > 10 µM
COC(=O)C1=C(c2cc(Br)c(O)c(Br)c2)[C@](OC)(c2ccc(O)c(Br)c2)O[C@@]1(C(=O)OC)c1cc(Br)c(O)c(Br)c1 | > 145 µM | 64 µg/mL | > 128 µg/mL | 8 µg/mL | 64 µg/mL | 64 µg/mL | > 145 µM | > 128 µg/mL | > 10 µM | > 10 µM
O=C1C=C(c2cc(Br)c(O)c(Br)c2)C(=O)C1(c1cc(Br)c(O)c(Br)c1)c1cc(Br)c(O)c(Br)c1 | 88 µM | 64 µg/mL | > 128 µg/mL | > 128 µg/mL | > 128 µg/mL | 4 µg/mL | 34 µM | > 128 µg/mL | > 10 µM | > 10 µM
O=C(O)C1=C(c2ccc(O)c(Br)c2)C(=O)C(c2cc(Br)c(O)c(Br)c2)(c2cc(Br)c(O)c(Br)c2)C1=O | > 159 µM | > 128 µg/mL | > 128 µg/mL | > 128 µg/mL | > 128 µg/mL | > 128 µg/mL | 54 µM | > 128 µg/mL | > 10 µM | > 10 µM
CC1(C)S[C@@H]2[C@H](NC(=O)[C@H](N)c3ccccc3)C(=O)N2[C@H]1C(=O)O [AMPICILLIN] |  | 0.06 µg/mL | 0.5 µg/mL | 0.5 µg/mL | 0.03 µg/mL | 0.03 µg/mL |  |  |  | 
COc1ccc2cc3[n+](cc2c1OC)CCc1cc2c(cc1-3)OCO2 [BERBERINE CHLORIDE] | 102 µM |  |  |  |  |  |  |  |  | 
O=C1O/C(=C\c2cc(Br)c(O)c(Br)c2)C(c2cc(Br)c(O)c(Br)c2)=C1C(=O)c1cc(Br)c(O)c(Br)c1 [CADIOLIDE B] | 103 µM | > 128 µg/mL | > 128 µg/mL | > 128 µg/mL | > 128 µg/mL | 64 µg/mL | 61 µM | > 128 µg/mL |  | 
O=C1O/C(=C\c2ccc(O)c(Br)c2)C(c2ccc(O)c(Br)c2)=C1C(=O)c1cc(Br)c(O)c(Br)c1 [CADIOLIDE C] | 59 µM | 64 µg/mL | > 128 µg/mL | > 128 µg/mL | > 128 µg/mL | 32 µg/mL | 17 µM | > 128 µg/mL |  | 
O=C1O/C(=C\c2ccc(O)c(Br)c2)C(c2cc(Br)c(O)c(Br)c2)=C1C(=O)c1cc(Br)c(O)c(Br)c1 [CADIOLIDE D] | 34 µM | > 128 µg/mL | > 128 µg/mL | > 128 µg/mL | > 128 µg/mL | 64 µg/mL | 11 µM | > 128 µg/mL |  | 
O=C1O/C(=C\c2cc(Br)c(O)c(Br)c2)C(c2ccc(O)c(Br)c2)=C1C(=O)c1cc(Br)c(O)c(Br)c1 [CADIOLIDE E] | > 162 µM | > 128 µg/mL | > 128 µg/mL | > 128 µg/mL | > 128 µg/mL | > 128 µg/mL | 27 µM | > 128 µg/mL |  | 
O=C1C=C(c2cc(Br)c(O)c(Br)c2)/C(=C/c2cc(Br)c(O)c(Br)c2)O1 [RUBROLIDE A] | 216 µM | 32 µg/mL | > 128 µg/mL | > 128 µg/mL | 16 µg/mL | 32 µg/mL | > 216 µM | > 128 µg/mL |  | 
CN(C)[C@@H]1C(O)=C(C(N)=O)C(=O)[C@@]2(O)C(O)=C3C(=O)c4c(O)cccc4[C@@](C)(O)[C@H]3C[C@@H]12 [TETRACYCLINE] |  |  |  |  |  |  |  | 0.25 µg/mL |  | 
